In patent US20220306585A1, “PYRAZOLE DERIVATIVES FOR CONTROLLING ARTHROPODS” (Bayer Animal Health GmbH, priority 2019, published 2022):
≈ marks a conversion by molar mass, not a printed value.

Assays:
[1] = Measurement of solubility in buffer at pH 6.5; format: physicochemical; details: aqueous buffer, kinetic from dmso stock; PBS buffer pH 6.5, shaken 24 h at rt, LC-MSMS; read-out: Solubility of example compounds at pH 6.5
Description: Measurement of Solubility in Buffer at pH 6.5 2-4 mg of the test compound are dissolved in DMSO to reach a concentration of 50 g/L (solution A). To 10 μL of this solution 960 μL PBS buffer pH 6.5 are added (final concentration: […]); the mixture is shaken for 24 h at rt in a 96 well plate. An aliquot is centrifuged at 42000 rpm für 30 min. The supernatant is diluted with acetonitrile/water (8:2) 1:10 and 1:1000 resp. This diluted samples are analyzed by LC-MSMS. Calibration: 10 μL of solution A are diluted with 823 μL DMSO (final concentration: 600 μg/mL), which is further diluted with acetonitrile/water 8:2 by a factor of 100 (provides solution B). The calibration curve is obtained from solution B by further diluting with acetonitrile/water 8:2 with target concentrations of 1.2-12-60-600 ng/mL and injecting these four solutions for MS measurement. PBS-Puffer: 6.18 g sodium chloride and 3.96 g sodium dihydrogen phosphate are dissolved in 1 L aqua dist., the pH is adjusted to 6.5 with IN sodium hydroxide.

[2] = Measurement of stability of prodrugs in buffer at pH 7.4; format: physicochemical; details: PBS buffer pH 7.4, 37° C., HPLC peak area, read-out: % Recovery after 24 h (stability at pH 7.4)
Description: Preparation of the PBS buffer solution pH 7.4: 90 g sodium chloride, 13.61 g potassium dihydrogen phosphate, 83.35 g 1M aqueous sodium hydroxide were dissolved in water. More water was added up to a total volume of 1 L. This solution was diluted 1:10 with water. Eventually, pH was adjusted to pH 7.4 by the addition of phosphoric acid.
Measurement of Stability of Prodrugs in Buffer at pH 7.4
0.15 mg of the test compound were dissolved in 0.1 mL dimethylsulfoxide and 0.4 mL acetonitrile. For complete dissolution, the HPLC vial with the sample solution was shaken and treated with ultrasound. Then, 1.0 mL of PBS buffer solution pH 7.4 was added and the sample was vortexed. The sample solution was analysed by HPLC (method 8) to determine the amount of the test compound at a particular time over a period of 24 h at 37° C. The peak areas, given as percentage of total area, are used for quantification. In addition, the reaction mixture was analysed by method 9 (HPLC-MS) at the final timepoint.

[3] = Degradation of prodrugs and release of parent drug in rat plasma; format: in vitro ADME; details: male, Hannover-Janvier RjHan, rat plasma (Li-heparin), 37° C., percent area of prodrug at t0
Description: Measurement of Release of Parent Drug in Rat Plasma 1 mg of the test compound was dissolved in 0.5 mL acetonitrile/dimethylsulfoxide 9:1. For complete dissolution the HPLC vial was shaken and treated with ultrasound. 20 μL of this solution were added to 1 mL of rat plasma (Li-heparin plasma, Hannover-Janvier rat, RjHan male) with vortexing at a temperature of 37° C. Aliquots (100 μL each) were taken at 0.17, 0.5, 1, 1.5, 2 and 4 hours. Each aliquot was transferred to a vial containing 300 μL of acetonitrile/citric acid buffer pH 3 8:2. These solutions were centrifuged at 5000 rpm for 10 minutes. The supernatant was analysed by HPLC (Method 8) to determine the amount of the test compound. In addition, the reaction mixture was analysed by method 9 (HPLC-MS) at the final timepoint. Both decrease of the prodrug concentration and increase of parent drug concentration were monitored. All data is given as percent area of the prodrug at to.

[4] = tested on: Ctenocephalides felis adult; experiment: Antiparasitic activity after administration to rats: fleas; format: in vivo; details: Ctenocephalides felis adult; for In-vivo Efficacy SD2: study day 2; for In-vivo Efficacy SD9: study day 9; for In-vivo Efficacy SD16: study day 16; for In-vivo Efficacy SD23: study day 23; for In-vivo Efficacy SD30: study day 30; for In-vivo Efficacy SD37: study day 37
Description: (§1) Measurement of the Antiparasitic Activity after Administration of a Prodrug to Rats Compounds were dissolved in the appropriate volume of glycerol formal (p.a.) just before application to the animals (dose volume was adjusted to 0.03 mL/kg bodyweight). 5 rats per group were either injected intraperitoneally or subcutaneously. Rats were infested with 30 Dermacentor variabilis nymphs on study days −2, 7, 14, 21, 28, 35 and 30 adult Ctenocephalides fleas on study days −1, 8, 15, 22, 29, 36. Parasite counts were performed on study days 2, 9, 16, 23, 30, 37. Percent efficacy was calculated as arithmetic mean parasite numbers as life attached tick numbers and live flea numbers of the respective study group in comparison to parasite counts on a placebo-treated control group. Infestation of groups with less than 75% efficacy on two consecutive counting occasions will terminated for the respective parasite.

[5] = tested on: Dermacentor variabilis nymph; experiment: Antiparasitic activity after administration to rats: ticks; format: in vivo; details: Dermacentor variabilis nymph; for In-vivo Efficacy SD2: study day 2; for In-vivo Efficacy SD9: study day 9; for In-vivo Efficacy SD16: study day 16; for In-vivo Efficacy SD23: study day 23; for In-vivo Efficacy SD30: study day 30; for In-vivo Efficacy SD37: study day 37
Description: as §1

## N#CC1(N(COC(=O)c2ccc(C(=O)O)cc2)C(=O)c2cc(-c3cnn(-c4c(Cl)cc(C(F)(C(F)(F)F)C(F)(F)F)cc4OC(F)(F)F)c3)ccc2Cl)CC1 [Example 3, 4-({[(2-Chloro-5-{1-[2-chloro-4-(1,1,1,2,3,3,3-heptafluoropropan-2-yl)-6-(trifluoromethoxy)phenyl]-1H-pyrazol-4-yl}benzoyl)(1-cyanocyclopropyl)amino]methoxy}carbonyl)benzoic acid]
[1]
  solubility at 24 h: 3 µg/mL (≈ 3.63 µM)
[2]
  recovery at 24 h, 0.1 mg/mL: 99%
[3]
  recovery at 0.17 h, 39 µg/mL: 100%
  recovery at 0.5 h, 39 µg/mL: 100%
  recovery at 1 h, 39 µg/mL: 100%
  recovery at 1.5 h, 39 µg/mL: 100%
  recovery at 2 h, 39 µg/mL: 100%
  recovery at 4 h, 39 µg/mL: 100%
[4]; 12.74 mg/kg sc
  In-vivo Efficacy SD2: 100%
  In-vivo Efficacy SD9: 100%
  In-vivo Efficacy SD16: 100%
  In-vivo Efficacy SD23: 96%
  In-vivo Efficacy SD30: 80%
  In-vivo Efficacy SD37: 55%
[5]; 12.74 mg/kg sc
  In-vivo Efficacy SD2: 99%
  In-vivo Efficacy SD9: 98%
  In-vivo Efficacy SD16: 93%
  In-vivo Efficacy SD23: 96%
  In-vivo Efficacy SD30: 85%
  In-vivo Efficacy SD37: 48%

## N#CC1(N(COC(=O)[C@H]2CC[C@H](C(=O)O)CC2)C(=O)c2cc(-c3cnn(-c4c(Cl)cc(C(F)(C(F)(F)F)C(F)(F)F)cc4OC(F)(F)F)c3)ccc2Cl)CC1 [Example 11, (trans)-4-({[(2-Chloro-5-{1-[2-chloro-4-(1,1,1,2,3,3,3-heptafluoropropan-2-yl)-6-(trifluoromethoxy)phenyl]-1H-pyrazol-4-yl}benzoyl)(1-cyanocyclopropyl)amino]methoxy}carbonyl)cyclohexane-1-carboxylic acid]
[1]
  solubility at 24 h: 5 µg/mL (≈ 6 µM)
[2]
  recovery at 24 h, 0.1 mg/mL: 100%
[3]
  recovery at 0.17 h, 39 µg/mL: 98%
  recovery at 0.5 h, 39 µg/mL: 96%
  recovery at 1 h, 39 µg/mL: 92%
  recovery at 1.5 h, 39 µg/mL: 89%
  recovery at 2 h, 39 µg/mL: 86%
  recovery at 4 h, 39 µg/mL: 74%
[4]; 12.84 mg/kg sc
  In-vivo Efficacy SD2: 100%
  In-vivo Efficacy SD9: 100%
  In-vivo Efficacy SD16: 100%
  In-vivo Efficacy SD23: 100%
  In-vivo Efficacy SD30: 97%
  In-vivo Efficacy SD37: 76%
[5]; 12.84 mg/kg sc
  In-vivo Efficacy SD2: 100%
  In-vivo Efficacy SD9: 100%
  In-vivo Efficacy SD16: 100%
  In-vivo Efficacy SD23: 100%
  In-vivo Efficacy SD30: 96%
  In-vivo Efficacy SD37: 71%

## N#CC1(N(COC(=O)Cc2ccc(C(=O)O)cc2)C(=O)c2cc(-c3cnn(-c4c(Cl)cc(C(F)(C(F)(F)F)C(F)(F)F)cc4OC(F)(F)F)c3)ccc2Cl)CC1 [Example 15, 4-(2-{[(2-Chloro-5-{1-[2-chloro-4-(1,1,1,2,3,3,3-heptafluoropropan-2-yl)-6-(trifluoromethoxy)phenyl]-1H-pyrazol-4-yl}benzoyl)(1-cyanocyclopropyl)amino]methoxy}-2-oxoethyl)benzoic acid]
[1]
  solubility at 24 h: 5 µg/mL (≈ 5.94 µM)
[2]
  recovery at 24 h, 0.1 mg/mL: 100%
[3]
  recovery at 0.17 h, 39 µg/mL: 94%
  recovery at 0.5 h, 39 µg/mL: 81%
  recovery at 1 h, 39 µg/mL: 62%
  recovery at 1.5 h, 39 µg/mL: 47%
  recovery at 2 h, 39 µg/mL: 36%
  recovery at 4 h, 39 µg/mL: 10%
[4]; 12.96 mg/kg sc
  In-vivo Efficacy SD2: 100%
  In-vivo Efficacy SD9: 100%
  In-vivo Efficacy SD16: 100%
  In-vivo Efficacy SD23: 99%
  In-vivo Efficacy SD30: 96%
  In-vivo Efficacy SD37: 81%
[4]; 12.96 mg/kg sc, study day 42
  In-vivo Efficacy SD42: 75%
[5]; 12.96 mg/kg sc
  In-vivo Efficacy SD2: 100%
  In-vivo Efficacy SD9: 100%
  In-vivo Efficacy SD16: 100%
  In-vivo Efficacy SD23: 100%
  In-vivo Efficacy SD30: 100%
  In-vivo Efficacy SD37: 100%
[5]; 12.96 mg/kg sc, study day 42
  In-vivo Efficacy SD42: 96%
